In brackets after ≈: the same amount, converted by molar mass. Activity calls are given as the source filed them. No cut-off for these calls is given here.

The test system of series [1] is Mycobacterium tuberculosis. As to the kind of experiment: Antitubercular activity against Mycobacterium tuberculosis H37Rv by MABA assay. Format: functional. (Resazurin is reduced to fluorescent resorufin, in cell work by metabolically active cells.)
In series [2] the test system is Mycobacterium tuberculosis. As to the kind of experiment: Antitubercular activity against Mycobacterium tuberculosis H37Rv by Agar dilution method. Format: functional.
The subject of a further series is Vero. As to the kind of experiment: Cytotoxicity against Vero cells after 3 days. Format: cell-based. The following applies: chlorocebus sabaeus, 72 h.
Series [3] has as its system Mycobacterium tuberculosis. As to the kind of experiment: Antitubercular activity against Mycobacterium tuberculosis H37Rv at 12.5 ug/mL by MABA assay. Format: functional, organism-based.

Turning to `c1ccc(C(c2ccccc2)c2c(OCCN3CCCC3)ccc3ccccc23)cc1`, the MIC is 6.25 µg/mL (≈ 15.3 µM) in series [1] and 3.12 µg/mL (≈ 7.66 µM) in series [2]. Also, the Activity entry in the series on Vero is “Toxic”.

For the compound `c1ccc(C(c2ccccc2)c2ccc(OCCN3CCCC3)c3ccccc23)cc1`, the minimum inhibitory concentration (MIC) in series [1] came to 6.25 µg/mL (≈ 15.3 µM); in series [2] it was 12.5 µg/mL (≈ 30.7 µM).

Consider `c1ccc(C(c2ccccc2)c2c(OCCN3CCCCC3)ccc3ccccc23)cc1`, for which the results for the MIC in series [1] and in series [2] were 6.25 µg/mL (≈ 14.8 µM) and 3.12 µg/mL (≈ 7.4 µM), respectively. Besides, in the series with Vero, the Activity entry is “Toxic”.

In series [2], `CN(C)CCOc1ccc(C(c2ccccc2)c2ccc(F)cc2)c2ccccc12` (stereo unspecified) gave an MIC of more than 12.5 µg/mL. The outcome in series [3] was inactive.

Turning to `c1ccc(C(c2ccccc2)c2ccc(OCCN3CCCCCC3)c3ccccc23)cc1`, the MIC in series [1] and in series [2] was 12.5 µg/mL (≈ 28.7 µM) throughout.

In the case of `CCN(CC)CCOc1ccc2ccccc2c1C(c1ccccc1)c1ccc(Cl)cc1` (stereo unspecified), the results for the MIC in series [1] and in series [2] were 3.12 µg/mL (≈ 7.03 µM) and 6.25 µg/mL (≈ 14.1 µM), respectively.

As for `CN(C)CCOc1ccc2ccccc2c1C(c1ccccc1)c1ccccc1`, the minimum inhibitory concentration (MIC) in series [1] stood at 6.25 µg/mL (≈ 16.4 µM); in series [2], 3.12 µg/mL (≈ 8.18 µM). For the same compound, the Activity entry in the series with Vero was “Toxic”.

For the compound `Clc1ccc(C(c2ccccc2)c2ccc(OCCN3CCCC3)c3ccccc23)cc1` (stereo unspecified), the minimal inhibitory concentration (MIC) in series [2] was 12.5 µg/mL (≈ 28.3 µM). Further, in series [3], the outcome was inactive.

Consider `Fc1ccc(C(c2ccccc2)c2c(OCCN3CCCCCC3)ccc3ccccc23)cc1` (stereo unspecified), for which the results for the minimum inhibitory concentration (MIC) in series [1] and in series [2] were 6.25 µg/mL (≈ 13.8 µM) and 12.5 µg/mL (≈ 27.6 µM), respectively.

Regarding `Fc1ccc(C(c2ccccc2)c2c(OCCN3CCCC3)ccc3ccccc23)cc1` (stereo unspecified), the figures for the minimal inhibitory concentration (MIC) in series [1] and in series [2] were 3.12 µg/mL (≈ 7.33 µM) and 6.25 µg/mL (≈ 14.7 µM), respectively.

Take `CN(C)CCOc1ccc2ccccc2c1C(c1ccccc1)c1ccc(F)cc1` (stereo unspecified): the minimal inhibitory concentration (MIC) is 3.12 µg/mL (≈ 7.81 µM) in series [1] and 6.25 µg/mL (≈ 15.6 µM) in series [2].

Turning to `Fc1ccc(C(c2ccccc2)c2ccc(OCCN3CCCCCC3)c3ccccc23)cc1` (stereo unspecified), the figures for the minimum inhibitory concentration (MIC) in series [1] and in series [2] were 12.5 µg/mL (≈ 27.6 µM) and more than 12.5 µg/mL, respectively.

For `CCN(CC)CCOc1ccc(C(c2ccccc2)c2ccccc2)c2ccccc12`, the MIC in series [1] was 6.25 µg/mL (≈ 15.3 µM); in series [2] it was 12.5 µg/mL (≈ 30.5 µM).

As to `CCN(CC)CCOc1ccc2ccccc2c1C(c1ccccc1)c1ccccc1`, the minimum inhibitory concentration (MIC) came out at 6.25 µg/mL (≈ 15.3 µM) in series [1] and 3.12 µg/mL (≈ 7.62 µM) in series [2]. The Activity entry with Vero was “Toxic”.

As to `c1ccc(C(c2ccccc2)c2ccc(OCCN3CCCCC3)c3ccccc23)cc1`, the minimal inhibitory concentration (MIC) in series [1] is 12.5 µg/mL (≈ 29.7 µM); in series [2], more than 12.5 µg/mL.

Regarding `Clc1ccc(C(c2ccccc2)c2ccc(OCCN3CCCCCC3)c3ccccc23)cc1` (stereo unspecified), the minimal inhibitory concentration (MIC) in series [2] is more than 12.5 µg/mL. The result in series [3] was inactive.

Consider `CN(C)CCOc1ccc(C(c2ccccc2)c2ccc(Cl)cc2)c2ccccc12` (stereo unspecified), for which, in series [2], the MIC is more than 12.5 µg/mL. For the same compound, the result in series [3] was inactive.

Consider `CN(C)CCOc1ccc2ccccc2c1C(c1ccccc1)c1ccc(Cl)cc1` (stereo unspecified), for which the MIC in series [1] was found to be 3.12 µg/mL (≈ 7.5 µM); in series [2] it was 6.25 µg/mL (≈ 15 µM).

Turning to `CN(C)CCOc1ccc(C(c2ccccc2)c2ccccc2)c2ccccc12`, the MIC in series [1] turned out to be 12.5 µg/mL (≈ 32.8 µM); in series [2], 6.25 µg/mL (≈ 16.4 µM).

As to `Clc1ccc(C(c2ccccc2)c2ccc(OCCN3CCCCC3)c3ccccc23)cc1` (stereo unspecified), the MIC in series [2] is 12.5 µg/mL (≈ 27.4 µM). The outcome in series [3] was inactive.

`Clc1ccc(C(c2ccccc2)c2c(OCCN3CCCCC3)ccc3ccccc23)cc1` (stereo unspecified): the MIC in series [1] was determined as 3.12 µg/mL (≈ 6.84 µM); in series [2], 6.25 µg/mL (≈ 13.7 µM).

In the case of `c1ccc(C(c2ccccc2)c2c(OCCN3CCCCCC3)ccc3ccccc23)cc1`, the MIC in series [1] came out at 6.25 µg/mL (≈ 14.3 µM); in series [2], 3.12 µg/mL (≈ 7.16 µM). The Activity result in the series on Vero is on record as “Toxic”.

As for `CO[C@H]1/C=C/O[C@@]2(C)Oc3c(C)c(O)c4c(O)c(c(/C=N/N5CCN(C)CC5)c(O)c4c3C2=O)NC(=O)/C(C)=C\C=C\[C@H](C)[C@H](O)[C@@H](C)[C@@H](O)[C@@H](C)[C@H](OC(C)=O)[C@@H]1C` [RIFAMPIN], the MIC in series [1] and in series [2] was 0.2 µg/mL (≈ 0.243 µM) each time.

In the case of `Fc1ccc(C(c2ccccc2)c2ccc(OCCN3CCCCC3)c3ccccc23)cc1` (stereo unspecified), the minimal inhibitory concentration (MIC) in series [1] and in series [2] was 12.5 µg/mL (≈ 28.4 µM) in each case.

For the compound `Fc1ccc(C(c2ccccc2)c2ccc(OCCN3CCCC3)c3ccccc23)cc1` (stereo unspecified), the results for the minimal inhibitory concentration (MIC) in series [1] and in series [2] were 6.25 µg/mL (≈ 14.7 µM) and 12.5 µg/mL (≈ 29.4 µM), respectively.

For `NNC(=O)c1ccncc1` [ISONIAZID], the MIC in series [1] and in series [2] was 0.025 µg/mL (≈ 0.182 µM) each time.

`CCN(CC)CCOc1ccc(C(c2ccccc2)c2ccc(F)cc2)c2ccccc12` (stereo unspecified) yielded an MIC in series [2] of more than 12.5 µg/mL. Also, the outcome in series [3] was inactive.

Turning to `Clc1ccc(C(c2ccccc2)c2c(OCCN3CCCCCC3)ccc3ccccc23)cc1` (stereo unspecified), the minimum inhibitory concentration (MIC) in series [1] was 3.12 µg/mL (≈ 6.64 µM); in series [2] it was 6.25 µg/mL (≈ 13.3 µM).

As for `CCN(CC)CCOc1ccc2ccccc2c1C(c1ccccc1)c1ccc(F)cc1` (stereo unspecified), the minimal inhibitory concentration (MIC) in series [1] was found to be 6.25 µg/mL (≈ 14.6 µM); in series [2], 3.12 µg/mL (≈ 7.3 µM). In addition, the Activity result in the series with Vero is recorded as “Toxic”.

As for `CCN(CC)CCOc1ccc(C(c2ccccc2)c2ccc(Cl)cc2)c2ccccc12` (stereo unspecified), the minimum inhibitory concentration (MIC) in series [1] and in series [2] was 12.5 µg/mL (≈ 28.2 µM) throughout.

`Clc1ccc(C(c2ccccc2)c2c(OCCN3CCCC3)ccc3ccccc23)cc1` (stereo unspecified): the MIC was 3.12 µg/mL (≈ 7.06 µM) in series [1] and 6.25 µg/mL (≈ 14.1 µM) in series [2].

As for `Fc1ccc(C(c2ccccc2)c2c(OCCN3CCCCC3)ccc3ccccc23)cc1` (stereo unspecified), the MIC in series [1] stood at 6.25 µg/mL (≈ 14.2 µM); in series [2], 3.12 µg/mL (≈ 7.1 µM). For the same compound, the Activity result in the series on Vero was “Toxic”.

Broadly, the MIC is the lowest concentration that inhibits growth of the organism.

The record behind these values is ChEMBL document CHEMBL1139800, “Design, synthesis and antitubercular activity of diarylmethylnaphthol derivatives” (Bioorg Med Chem Lett, 2007).
